Assays:
eye = test: Local irritative effect on the eye in rabbits; assay type: in vivo; settings: rabbit, single ocular instillation
Description: Japanese white rabbits (male, 10 weeks old, BIOTEC Co., Ltd.) were purchased, acclimated for 1 week and used for the study. Compound F solution (0.01 w/v %) was instilled once into the cornea of both eyes at a volume of 50 μL/eye with a micropipette. The intraocular pressure of the right eye was measured and the local irritative effect on the eye was evaluated using the left eye. After surface anesthesia with oxybupranol (Benoxil 0.4% instillation solution), the intraocular pressure was measured before ocular instillation and 1, 2, 3, 4, 6 and 8 hr after the instillation using a pneumatonometer (Alcon Ltd.). In addition, the local irritative effect on the eye was evaluated by scoring conjunctival congestion, conjunctival edema, cornea opacity, iris congestion, excretion and eye closure performance. For the evaluation, phosphate buffer was used for the solvent control group, and isopropyl unoprostone (Rescula eye drops, Santen Pharmaceutical Co., Ltd.) was used for comparison. Six animals were used for each group and the results were expressed as average.

[1] = system: concanavalin A-induced hepatitis; test: Concanavalin A-induced hepatitis model in mice, prophylactic; assay type: in vivo, mouse; settings: BALB/c mice, oral 1 hr before Con A; compound F 1 mg/10 mL/kg, prednisolone 5 mg/10 mL/kg
Description: The prophylactic effect of compound F on hepatitis was investigated using concanavalin A (hereinafter Con A)-induced hepatitis model.
BALB/c mice (female, 7 weeks old, Japan SLC) were purchased, acclimated for 1 week and used for the study. Except the no-induction group, Con A (type IV, Sigma-Aldrich) dissolved in saline was administered from the tail vein of the mice at a dose of 12.5 mg/10 mL/kg to induce hepatitis. Twenty hr later, the mice were subjected to laparotomy under ether anesthesia. A 0.5 mL of blood sample was collected from the caudal vena cava and heparinized plasma was obtained to measure plasma ALT and AST activities. Test substances were compound F (1 mg/10 mL solution), prednisolone (Nacalai Tesque, 5 mg/10 mL suspension (with 0.5 w/v % methylcellulose)) and water for injection (administered to the control group), which were orally administered at a volume of 10 mL/kg 1 hr before Con A injection. Seven to 9 animals were used for each group. After logarithmic transformation of the data, one-way analysis of variance was performed for statistical evaluation.

[2] = system: ethanol-induced gastric mucosal injury; test: Ethanol-induced gastric mucosal injury model in rats; assay type: in vivo, rat; settings: SD rats, 30 min before ethanol
Description: The suppressive effect of compound F on gastric mucosal injury was investigated in ethanol-induced gastric mucosal injury model in rats. This model is frequently used as an animal model of human acute gastritis associated with congestive mucosal injury (Reference K).
Male SD rats (7 weeks old, Charles River) were purchased through Oriental BioService Inc., acclimated for 1 week and used for the study. The rats were grouped based on the body weight, placed in a clean cage set with a wire mesh floor one day before the study, fasted for 19 hr (without water for last 3 hr), and orally administered with ethanol (special grade, Nacalai Tesque, Lot No. V8A5862, 1.5 mL) in all groups to induce gastric mucosal injury. Compound F was orally administered at doses of 0.01, 0.1 and 1 mg/kg 30 min before induction of gastric mucosal injury at a volume of 5 mL/kg. To the control group was orally administered a solvent (1 vol % ethanol solution) at 5 mL/kg in the same manner. Eight animals were used for each group.
The rats were bled to death from the abdominal aorta and caudal vena cava under ether anesthesia after 1 hr from the ethanol administration, and the stomach was isolated. […] The length and width of each ulcer were measured under a stereomicroscope, the area was calculated, and the sum thereof was taken as the total ulcer area.

[3] = system: indomethacin-induced small intestinal injury; test: Indomethacin-induced small intestinal injury model in rats; assay type: in vivo, rat; settings: SD rats, 30 min before and 6 hr after indomethacin
Description: The suppressive effect of compound F on small intestinal injury was investigated using indomethacin-induced small intestinal injury model in rats. Administration of non-steroidal anti-inflammatory drugs (NSAIDs) is known to induce hemorrhagic injury in the small intestine of human.
Male SD rats, 7 weeks old (Charles River) were purchased, acclimated for 1 week and used for the study. The rats were grouped based on the body weight and subcutaneously administered with indomethacin (SIGMA, Lot No. 19F0018) at 15 mg/5 mL/kg to all groups to induce small intestinal injury. Compound F at doses of 0.01, 0.1 and 1 mg/kg was orally administered at a volume of 5 mL/kg 30 min before and 6 hr after the subcutaneous administration of indomethacin. To the control group was orally administered a solvent (1 vol % ethanol solution) at 5 mL/kg in the same manner. Eight animals were used for each group.
The rats were intravenously administered with 2 mL of 10 mg/mL Evans blue solution under ether anesthesia 23.5 hr after the indomethacin administration. After 30 min, the rats were bled to death from the abdominal aorta and caudal vena cava under ether anesthesia and the small intestine was isolated. […] The length and width of each ulcer were measured under a stereomicroscope, the area was calculated, and the sum thereof was taken as the total ulcer area.

human EP4 = target: T1, human EP4 (Homo sapiens, UniProt P35408); test: Receptor affinity, tritium-labeled PGE2 binding to membranes of transfected COS-7 cells; settings: binding affinity ratio
T1 construct: expressed in transfected cells; host or cells: COS-7 (membranes)
Description: PG receptor affinity of compound F and compound J of the present invention was evaluated. Compound F used was one synthesized in Example 9, and compound J was prepared by separating and purifying the compound synthesized in Example 14 with a column (the same preparations were used in the following Examples). COS-7 cells were transfected with the genes of mouse EP4, human EP1-4 or human IP to overexpress the receptor and then the cell membranes were collected. […] The dissociation constant Kd value was obtained and inhibition constant Ki value of each test compound was determined in a conventional method.

T1 sequence (P35408 whole entry): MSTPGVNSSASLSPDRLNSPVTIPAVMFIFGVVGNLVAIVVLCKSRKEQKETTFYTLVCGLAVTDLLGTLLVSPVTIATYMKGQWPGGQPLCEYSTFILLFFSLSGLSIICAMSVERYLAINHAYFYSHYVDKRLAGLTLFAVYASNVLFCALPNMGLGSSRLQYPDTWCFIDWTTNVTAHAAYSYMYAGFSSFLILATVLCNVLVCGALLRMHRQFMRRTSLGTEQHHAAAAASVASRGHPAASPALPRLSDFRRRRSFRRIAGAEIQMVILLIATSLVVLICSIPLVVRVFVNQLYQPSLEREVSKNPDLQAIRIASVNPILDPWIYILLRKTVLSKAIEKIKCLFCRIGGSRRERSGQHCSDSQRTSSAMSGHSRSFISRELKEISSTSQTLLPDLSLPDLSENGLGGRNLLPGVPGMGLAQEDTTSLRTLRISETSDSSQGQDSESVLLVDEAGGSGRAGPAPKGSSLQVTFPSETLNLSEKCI

`Cc1cccc([C@@H](C)[C@H](O)/C=C/[C@@H]2[C@@H]3[C@H](C[C@H]2O)O/C(=C\CCCc2nnn[nH]2)C3(F)F)c1` [Compound F, 4-[(Z)-(1S,5R,6R,7R)-6-[(1E,3R,4R)-3-hydroxy-4-(m-tolyl)-1-pentenyl]-7-hydroxy-2-oxa-4,4-difluoro-bicyclo[3.3.0]octan-3-ylidene]-1-(tetrazol-5-yl)butane] was tested, and the “Local irritant effect on the eye” value (eye) was “conjunctival edema and eye closure were observed 1 hr after the instillation in some animals”, the “Effect on increase of plasma ALT and plasma AST activities” value [1] was “significantly and strongly suppressed the increase” and the “Effect on total ulcer area (stomach)” value ([2]; oral 1 mg/kg) was “almost completely reduced the area”. The “Effect on total ulcer area (stomach)” value ([2]; oral, from 0.01 mg/kg (0.01, 0.1 and 1 mg/kg)) was “significantly reduced the total ulcer area in a dose-dependent manner”, the “Effect on total ulcer area (small intestine)” value ([3]; oral 1 mg/kg) was “completely reduced the area” and the “Effect on total ulcer area (small intestine)” value ([3]; oral, from 0.1 mg/kg) was “significantly reduced the ulcer area in a dose-dependent manner”. For the same compound, the “Affinity for human EP4 higher than to human EP1, EP2 and EP3” value (human EP4) was at least 60 fold and the “Affinity for human EP4 higher than to human IP” value (human EP4) was at least 100 fold.

— US9034906B2, “EP4 agonist” (Asahi Glass Company, Limited, priority 2008, dated 2015)
